# Source: patent publication US9598384B2, “3-(2-amino-ethyl)-alkylidene)-thiazolidine-2,4-dione and 1-(2-amino-ethyl)-alkylidene-1,3-dihydro-indol-2-one derivatives as selective sphingosine kinase 2 inhibitors” (VIRGINIA COMMONWEALTH UNIVERSITY, priority 2012, dated 2017)
# Tests used:
# S1P = test: Cellular S1P level in U937 cells by ESI-MS/MS; assay type: cell-based, human; conditions: 10 μM, 3 h
# Protocol: (§1) FIG. 16A-E. K145 accumulates and suppresses the S1P level. A and B) U937 cells were treated with K145 at the indicated concentrations for 3 h and the levels of K145 and S1P were measured by ESI-MS/MS. C) HEK293 cells were treated with K145 (10 μM) for 2 h. Lipids were extracted and different chain length species of ceramide were determined by LC-ESI-MS/MS. Numbers indicate chain length followed by the number of double bonds in the fatty acid. Data are averages of triplicate determinations and are expressed as pmol lipid/10^6 cells. D) U937 cells were treated with or without K145 (10 μM) for 3 h and levels of C1P species were determined by ESI-MS/MS. E) U937 cells were treated with FTY720 (1 μM) in the absence or presence of indicated K145 for 3 h, then FTY720-P was measured by ESI-MS/MS. *P<0.05 compared to control.
# (§2) Next we examined whether K145 affects cellular levels of S1P. […] Therefore, we further characterized K145 in U937 cells. […] This might be due to the fact that many enzymes such as SphK1, SphK2, S1P lyase, and S1P phosphatise, not just SphK2, are involved in the regulation of cellular S1P. […] To further confirm its SphK2 selectivity, we then tested the effects of K145 on the phosphorylation of FTY720, a SphK2 specific substrate.
# U937 xenograft = test: U937 xenografts in nude mice, i.p. administration; assay type: in vivo, BALB/c-nu mice; conditions: 15 mg/kg daily i.p.
# Protocol: D) Body weights of mice throughout treatment. Data are expressed as mean value±SD. *P<0.05 compared to control group.
# Female nude mice (BALB/c-nu, n=7) were inoculated with 3×10^7 U937 cells subcutaneously in the right flank. After 7 days of implant of U937 cells, mice were treated daily with Vehicle (control), or Tamibarotene (15 mg/Kg, positive control), or Formula III (K145) (15 mg/Kg) by i.p. administration. Tumor size was measured every other day.
# SphK1 = SphK1 (Homo sapiens, UniProt Q9NYA1); test: SphK1 activity assay; assay type: biochemical; conditions: relative activity vs no inhibitor; compounds at 10 μM (FIGS. 1, 4, 6)
# SphK1, sequence (Q9NYA1 whole entry, species assumed): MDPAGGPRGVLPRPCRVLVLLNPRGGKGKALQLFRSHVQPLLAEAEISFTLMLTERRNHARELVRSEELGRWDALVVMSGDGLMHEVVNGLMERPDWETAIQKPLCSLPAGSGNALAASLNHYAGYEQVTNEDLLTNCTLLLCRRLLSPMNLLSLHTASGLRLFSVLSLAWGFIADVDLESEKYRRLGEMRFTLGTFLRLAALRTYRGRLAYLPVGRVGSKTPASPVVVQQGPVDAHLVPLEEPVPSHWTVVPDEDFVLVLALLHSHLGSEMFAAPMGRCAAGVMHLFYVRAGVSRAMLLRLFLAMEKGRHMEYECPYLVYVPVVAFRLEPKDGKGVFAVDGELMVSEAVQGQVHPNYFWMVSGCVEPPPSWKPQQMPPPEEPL
# Protocol: A) SphK1 and SphK2 activities were measured with 5 μM sphingosine in the absence or presence of the indicated concentrations of K145 or 10 μM DMS. Data are expressed as percentage SphK activity in the absence of inhibitor; B) Effect of K145 (10 μM) on activity of the indicated enzymes was tested by SelectScreen Kinase Profiling from Invitrogen. CaMK11β, Ca2+/calmodulin-dependent protein kinase II; CDK2, cyclin-dependent kinase 2; EGFR, Epidermal Growth Factor Receptor; Fyn, Fyn Kinase (p55); ERK2, extracellular signal-regulated kinase 2; ERK1, extracellular signal-regulated kinase 1; PKA, protein kinase A; PKCα, protein kinase C α; P13K, phosphatidylinositide 3-kinase. Data are expressed as percentage of control activity averaged from 2 independent experiments.
# FIG. 3. SphK2 was incubated with indicated compounds at 10 μM, then the activity of SphK2 was determined. The data shown here is a relative activity of SphK2 compared to control (no inhibitor, column labeled Sph in the Figure). 96047 is a known SpK2 inhibitor. A5, B26, K25 and QLA13 are known compounds [Li et al. (2009) Bioorg Med Chem Lett 19: 6042-6046; Liu et al. (2012) Eur J Med Chem 47: 125-137] and were tested for purposes of comparison. “A” and “B” refer to different batches of a compound. FIG. 4. SphK1 was incubated with indicated compounds at 10 μM, then the activity of SphK1 was determined. The data shown here is a relative activity of SphK1 compared to control (no inhibitor, column labeled Sph in the Figure). 96091 is a known Spk1 inhibitor. A5, B26, K25 and QLA13 are as above for […]. “A” and “B” refer to different batches of a compound.
# FIG. 6. SphK1 was incubated with indicated compounds at 10 μM, then the activity of SphK2 was determined. The data shown here is a relative activity of SphK2 compared to control (no inhibitor).
# JC xenograft = test: JC xenografts in syngenic BALB/c mice, i.p.; assay type: in vivo
# Protocol: FIG. 14A-E. K145 suppresses the growth of JC xenograft in BALB/c mice. BALB/c mice (n=8) with palpable JC xenograft were treated daily with vehicle or K145 (20 mg/kg and 35 mg/kg) for 15 days by i.p. injection.
# Female BALB/c mice (n=12) were injected with 1×10^6 JC cells subcutaneously in the flank, and treatment with the compound produced as described in Example 15 i.e. 3-(2-aminoethyl)-5-[3-(4-butoxyphenyl)-propylidene]-thiazolidine-2,4-dione (Formula III-K145, 20 mg/kg and 35 mg/Kg dosage daily (i.p.) was started seven days after the tumor cell injection and stopped at day […]. Mice were sacrificed at 15 days treatment.
# U937 cells = test: Uptake of K145 by U937 cells, ESI-MS/MS; assay type: in vitro ADME, human; conditions: 3 h, concentration dependent
# Protocol: as §1, §2
compound,measurement,setting,value
"CCCCOc1ccc(CC/C=C2\SC(=O)N(CCN)C2=O)cc1 [K145, 3-(2-aminoethyl)-5-[3-(4-butoxyl-phenyl)-propylidene]-thiazolidine-2,4-dione]",total cellular S1P,S1P,caused a decrease
same,TGI (tumor growth inhibition),U937 xenograft; 17 days,44.2%
same,body weights of mice,U937 xenograft; compared with vehicle,remained the same
same,inhibition of SphK1 activity (in words),SphK1,not SphK1
same,S1P level in JC tumor samples,"JC xenograft; 20 mg/kg group vs vehicle, ESI-MS/MS",suppressed
same,K145 level in JC tumor samples,"JC xenograft; 20 mg/kg group, ESI-MS/MS",detected
same,p-ERK and p-Akt levels in tumor samples,"JC xenograft; 20 mg/kg vs vehicle, Western blot",decreased
same,"changes in body weights and major organs (heart, lung, liver, kidney)","JC xenograft; 20 and 35 mg/kg i.p., 15 days",did not observe significant changes
same,tumor weights vs vehicle-treated mice,"JC xenograft; 20 and 35 mg/kg i.p., 15 days",significantly less
same,mean volume of JC tumors smaller than in vehicle-treated mice,"JC xenograft; both doses (20 and 35 mg/kg daily i.p.), after 15 days",> 50%
same,uptake by U937 cells,U937 cells,readily taken up
